The results in this text go back to ChEMBL document CHEMBL4052740, “Potent antiobesity effect of a short-length peptide YY-analogue continuously administered in mice” (Bioorg Med Chem Lett, 2017).

For orientation: MRT means a mean duration of stay, worked out from the concentration-time curve. As a reminder, the EC50 is the midpoint of the concentration-response curve. A lower EC50 goes with higher potency in that assay. What is called bioavailability is the share of a dose that reaches the circulation, judged against a reference dose that is usually intravenous. Lower therefore signals poor availability. A word on the Tmax: it is the time from dosing to the highest level. In general, IC50 refers to the concentration needed to halve the response being measured. The term AUC(0-t) denotes exposure summed from dosing to a finite time, without extrapolation to infinity. Read a high AUC(0-t) as more exposure. The term Cmax denotes the peak of the concentration-time curve. By clearance is commonly meant a measure of how efficiently the substance is removed, as volume per time. Read a high clearance as efficient removal. Usually inhibition in vivo stands for the share of the control response that was lost under treatment.

SMILES strings stand for the structures. Calls of active or inactive are those of the source. No cut-off for these calls is given here. Where a SMILES comes first, the peptide text is derived from it. [ ]: non-standard residue; d: D form. The star is where a group is joined. dHyp = O=C(O)[C@H]1C[C@H](O)CN1; Cha = N[C@@H](CC1CCCCC1)C(=O)O; Aib = CC(C)(N)C(=O)O; Bz = O=C(c1ccccc1)*

Data set [1] concerns Mus musculus. Put plainly: Anorectic activity in lean C57BL/6J mouse assessed as inhibition of cumulative food intake at 3 to 300 nmol/kg through bolus subcutaneous administration measured 24 hrs post dose. Format: functional, organism-based.
Data set [2] deals with Mus musculus. In words: Mean absorption time in C57BL/6J mouse at 1 mg/kg, sc by LC/MS/MS analysis. Format: ADME, organism-based. Conditions: in vivo.
Data set [3] deals with Mus musculus. Put plainly: Anorectic activity in lean C57BL/6J mouse assessed as inhibition of cumulative food intake at 3 to 300 nmol/kg through bolus subcutaneous administration measured 3 to 24 hrs post dose. Format: functional, organism-based.
Data set [4] can be described thus: Mean residence time in C57BL/6J mouse at 1 mg/kg, iv by LC/MS/MS analysis. Format: ADME, organism-based. Conditions: in vivo.
Data set [5] is described as follows: Volume of distribution at steady state in C57BL/6J mouse at 1 mg/kg, iv by LC/MS/MS analysis. It counts as ADME, organism-based. Conditions: in vivo, read-out: Vdss.
The target in data set [6] is T1, Neuropeptide Y receptor type 2 (Homo sapiens, UniProt P49146).
T1 sequence (P49146 whole entry): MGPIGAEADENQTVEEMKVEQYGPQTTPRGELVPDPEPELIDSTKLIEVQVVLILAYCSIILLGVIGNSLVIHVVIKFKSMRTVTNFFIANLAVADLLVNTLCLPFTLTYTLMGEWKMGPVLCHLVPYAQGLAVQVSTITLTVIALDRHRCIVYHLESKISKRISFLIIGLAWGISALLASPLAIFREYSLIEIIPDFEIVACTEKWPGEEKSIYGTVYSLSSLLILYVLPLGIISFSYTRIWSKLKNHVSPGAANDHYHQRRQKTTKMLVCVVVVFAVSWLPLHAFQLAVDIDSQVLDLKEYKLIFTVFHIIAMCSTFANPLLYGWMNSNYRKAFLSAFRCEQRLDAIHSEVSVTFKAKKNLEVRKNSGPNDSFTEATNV
Put plainly: Agonist activity at human Y2 receptor expressed in CHO cell membranes after 120 mins by [35S]GTPgammaS binding assay. It counts as functional. Background: Binding of GTPγS marks nucleotide exchange on a G protein.

The nature of data set [7]: Mean residence time in C57BL/6J mouse at 1 mg/kg, sc by LC/MS/MS analysis. Format: ADME, organism-based. The note with it: in vivo.
The nature of data set [8]: Bioavailability in C57BL/6J mouse at 1 mg/kg, sc by LC/MS/MS analysis. Conditions: in vivo. It counts as ADME, organism-based.
Data set [9] concerns Mus musculus. In words: Antiobesity activity in obese C57BL/6J mouse assessed as inhibition of cumulative food intake at 0.03 to 0.3 mg/kg/day administered via subcutaneous osmotic pumps by continuous dosing for 11 days. It counts as functional, organism-based.
The nature of data set [10]: Tmax in C57BL/6J mouse at 1 mg/kg, sc by LC/MS/MS analysis. Format: ADME, organism-based. Conditions: in vivo.
Data set [11] concerns the target T1, Neuropeptide Y receptor type 2. Put plainly: Displacement of [125I]peptide YY from human Y2 receptor expressed in CHO cell membranes after 60 mins by TopCount scintillation counting analysis.
The nature of data set [12]: Plasma concentration in C57BL/6J mouse at 1 mg/kg, iv after 5 mins by LC/MS/MS analysis. It counts as ADME, organism-based.
The subject of data set [13] is Mus musculus. In words: Antiobesity activity in obese C57BL/6J mouse assessed as body weight loss at 0.3 mg/kg/day administered via subcutaneous osmotic pumps by continuous dosing measured on day 11 relative to control. It counts as functional.
A short description of data set [14]: AUC (0 to 24 hrs) in C57BL/6J mouse at 1 mg/kg, sc by LC/MS/MS analysis. Format: ADME, organism-based. Set-up: dose 1 mg/kg, time < 24 hr, route subcutaneous. The note with it: in vivo.
Data set [15] relates to Mus musculus. In words: Antidiabetic activity in type 2 diabetes obese mouse assessed as reduction in glycated hemoglobin level at 0.03 to 0.3 mg/kg/day administered via subcutaneous osmotic pumps by continuous dosing for 11 days. Format: functional, organism-based.
Data set [16] relates to Mus musculus. In words: Antidiabetic activity in type 2 diabetes obese mouse assessed as reduction in plasma glucose level at 0.03 to 0.3 mg/kg/day administered via subcutaneous osmotic pumps by continuous dosing for 11 days. Format: functional, organism-based.
Data set [17] relates to Mus musculus. Put plainly: Anorectic activity in C57BL/6J mouse assessed as inhibition of food intake at 0.3 mg/kg/day, sc administered by infusion as continuous dosing for 3 days relative to 1 mg/kg/day PYY (3 to 36 residues). It counts as functional.
Data set [18] can be described thus: AUC (0 to 24 hrs) in C57BL/6J mouse at 1 mg/kg, iv by LC/MS/MS analysis. It counts as ADME, organism-based. Further details: time < 24 hr, dose 1 mg/kg, route intravenous. Conditions: in vivo.
Data set [19] is described as follows: Cmax in C57BL/6J mouse at 1 mg/kg, sc by LC/MS/MS analysis. It counts as ADME, organism-based. Further details: dose 1 mg/kg, route subcutaneous. The note with it: in vivo.
In data set [20] the test system is Mus musculus. In words: Anorectic activity in C57BL/6J mouse assessed as inhibition of food intake at 0.1 mg/kg/day, sc administered by infusion as continuous dosing for 3 days relative to 1 mg/kg/day PYY (3 to 36 residues). Format: functional.
The test system of data set [21] is Mus musculus. In words: Anorectic activity in C57BL/6J mouse assessed as inhibition of food intake at 0.03 mg/kg/day, sc administered by infusion as continuous dosing for 3 days relative to 1 mg/kg/day PYY (3 to 36 residues). Format: functional.
Data set [22] is described as follows: Total clearance in C57BL/6J mouse at 1 mg/kg, iv by LC/MS/MS analysis. Format: ADME, organism-based. Conditions: in vivo.
In data set [23] the test system is Mus musculus. Put plainly: Anorectic activity in C57BL/6J mouse assessed as inhibition of food intake at 1 mg/kg/day, sc administered by infusion as continuous dosing for 3 days relative to 1 mg/kg/day PYY (3 to 36 residues). It counts as functional. Conditions: 72 h.

For the compound `CC(=O)N[C@@H](CO)C(=O)N1CCC[C@@H]1C(=O)N[C@@H](CCCNC(=N)N)C(=O)N[C@@H](Cc1ccncc1)C(=O)N[C@@H](CC1CCCCC1)C(=O)NC(C)(C)C(=O)N[C@@H](CC(N)=O)C(=O)N[C@@H](CCCCN)C(=O)NC(C)(C)C(=O)N[C@H](C(=O)N[C@@H](CCCNC(=N)N)C(=O)N[C@@H](CCC(N)=O)C(=O)N[C@@H](CCCNC(=N)N)C(=O)N[C@@H](CC1CCCCC1)C(N)=O)[C@@H](C)O`, the result in data set [1], in data set [15] and in data set [16] was Active. The compound also yielded an MAT in data set [2] of 0.1 h. The inhibition entry in data set [3] and in data set [9] was “Active” throughout. The mean residence time (MRT) was 20.4 min in [4] and 26.4 min in data set [7]. In addition, the Vd in data set [5] amounted to 0.809 L/kg. Further, a half-maximal response in [6] (EC50) required 0.2 nM. Besides, the bioavailability in data set [8] came to 66.6%. Further, the Tmax in [10] amounted to 10.2 min. The compound also gave a concentration for half-maximal inhibition (IC50) in [11] of 0.92 nM. The concentration at 5 min in [12] was 1060 nM. Moreover, the Activity in data set [13] is 23%. In addition, the AUC(0-t) at 24 h in data set [14] came out at 0.154 µM·h; in data set [18], 0.231 µM·h. Further, the “inhibition (INH)” value in data set [17] is on record as 112%; in [20], 80%; in data set [21], 38%. The highest level in data set [19] (Cmax) was 283 nM. The clearance in data set [22] was 39.9 mL/min/kg.

`CC(=O)N[C@@H](CO)C(=O)N1CCC[C@@H]1C(=O)N[C@@H](CCCNC(=N)N)C(=O)N[C@@H](Cc1cnc[nH]1)C(=O)N[C@@H](CC1CCCCC1)C(=O)N[C@@H](CC1CCCCC1)C(=O)N[C@@H](CC(N)=O)C(=O)N[C@@H](CCCNC(=N)N)C(=O)NC(C)(C)C(=O)N[C@H](C(=O)N[C@@H](CCCNC(=N)N)C(=O)N[C@@H](CCC(N)=O)C(=O)N[C@@H](CCCNC(=N)N)C(=O)N[C@@H](CC1CCCCC1)C(N)=O)[C@@H](C)O` yielded an EC50 in [6] of 0.16 nM. In data set [11], this compound displayed an IC50 of 0.6 nM. Further, in data set [23], the inhibition in vivo at 1 mg/kg/day turned out to be 59%.

In data set [6], `CC(=O)N[C@@H](CO)C(=O)N1CCC[C@@H]1C(=O)N[C@@H](CCCNC(=N)N)C(=O)N[C@@H](Cc1cnc[nH]1)C(=O)N[C@@H](CC1CCCCC1)C(=O)N[C@@H](Cc1ccncc1)C(=O)N[C@@H](CC(N)=O)C(=O)N[C@@H](CC(C)C)C(=O)NC(C)(C)C(=O)N[C@H](C(=O)N[C@@H](CCCNC(=N)N)C(=O)N[C@@H](CCC(N)=O)C(=O)N[C@@H](CCCNC(=N)N)C(=O)N[C@@H](CC1CCCCC1)C(N)=O)[C@@H](C)O` yielded an EC50 of 0.75 nM. For the same compound, in data set [11], the IC50 was 2.5 nM. Besides, the inhibition in vivo at 1 mg/kg/day in [23] worked out at 41%.

As to `CC(C)C[C@H](NC(=O)[C@H](CC(N)=O)NC(=O)[C@H](CC1CCCCC1)NC(=O)[C@H](CC1CCCCC1)NC(=O)[C@H](Cc1cnc[nH]1)NC(=O)[C@H](CCCNC(=N)N)NC(=O)c1ccccc1)C(=O)NC(C)(C)C(=O)N[C@H](C(=O)N[C@@H](CCCNC(=N)N)C(=O)N[C@@H](CCC(N)=O)C(=O)N[C@@H](CCCNC(=N)N)C(=O)N[C@@H](CC1CCCCC1)C(N)=O)[C@@H](C)O` (Bz-RH[Cha][Cha]NL[Aib]TRQR[Cha]-NH2), in data set [2], the MAT was determined as 2.72 h. In addition, in [6], the EC50 came to 2 nM. In [8], this compound returned a bioavailability of 5.9%. The compound also registered a half-inhibitory concentration (IC50) in data set [11] of 7.4 nM.

Regarding `CC(=O)N[C@@H](CO)C(=O)N1CCC[C@@H]1C(=O)N[C@@H](CCCNC(=N)N)C(=O)N[C@@H](CO)C(=O)N[C@@H](CC1CCCCC1)C(=O)N[C@@H](CC1CCCCC1)C(=O)N[C@@H](CC(N)=O)C(=O)N[C@@H](CC(C)C)C(=O)NC(C)(C)C(=O)N[C@H](C(=O)N[C@@H](CCCNC(=N)N)C(=O)N[C@@H](CCC(N)=O)C(=O)N[C@@H](CCCNC(=N)N)C(=O)N[C@@H](CC1CCCCC1)C(N)=O)[C@@H](C)O`, the 50% effective concentration (EC50) in data set [6] came to 0.33 nM. In data set [11], this compound displayed a 50% inhibitory concentration (IC50) of 0.97 nM. Also, in data set [23], the inhibition in vivo at 1 mg/kg/day worked out at 54%.

For `CC(=O)N[C@@H](CO)C(=O)N1C[C@@H](O)C[C@@H]1C(=O)N[C@@H](CCCNC(=N)N)C(=O)N[C@@H](Cc1cnc[nH]1)C(=O)N[C@@H](CC1CCCCC1)C(=O)N[C@@H](CC1CCCCC1)C(=O)N[C@@H](CC(N)=O)C(=O)N[C@@H](CC(C)C)C(=O)NC(C)(C)C(=O)N[C@H](C(=O)N[C@@H](CCCNC(=N)N)C(=O)N[C@@H](CCC(N)=O)C(=O)N[C@@H](CCCNC(=N)N)C(=O)N[C@@H](CC1CCCCC1)C(N)=O)[C@@H](C)O` (Ac-S[dHyp]RH[Cha][Cha]NL[Aib]TRQR[Cha]-NH2), the MAT in [2] is 0.14 h. This compound also gave an EC50 in data set [6] of 0.2 nM. Also, the bioavailability in [8] was found to be 18.6%. The compound also displayed an IC50 in data set [11] of 0.7 nM. Further, in data set [20], the “inhibition (INH)” value came to 18%.
